Experimental data: article PMC6278385, “Preclinical Pharmacokinetics of C118P, a Novel Prodrug of Microtubules Inhibitor and Its Metabolite C118 in Mice, Rats, and Dogs” (Molecules, 2018)
Like-named read-outs stand apart in the source and are kept apart here.

How the values were obtained:
[1] = Whole blood/plasma ratio; format: in vitro ADME; conditions: whole blood and plasma; in rat; incubation 30 min
Procedure: The ratio of C118P and C118 in blood and plasma was studied. The whole blood was obtained from healthy volunteer and was separated into two parts to obtain whole blood and plasma. Standard solution was added into whole blood and plasma to mimic the incurred sample. After incubation for 30 min, the whole blood was separated into two parts. One was frozen and thawed to obtain the homogenous whole blood and the other sample was centrifuged to obtain plasma. The samples were analyzed by the established LC-MS/MS method and the blood plasma ratio was calculated.

[2] = Metabolic stability in liver microsomes; format: in vitro ADME, dog
Procedure: The in vitro metabolic stability of C118P and C118 were estimated in mice, rat, dog, monkey, and human liver microsomes (Research Institute for Liver Diseases Co. Ltd (Shanghai, China)). The incubation mixture contains C118P or C118, NADP (1.0 mM), G-6-P (10 mM), PDH (2 units/mL), MgCl2 (10 mM), and liver microsomes (mice, rats, dogs, monkeys, or humans, 1.0 mg protein/mL) in phosphate buffer. A total of 200 μL of the mixture was removed and quenched with 600 μL acetonitrile in an ice bath at 0, 15, 30, 60, 120, and 240 min after the addition of NADPH.
CLint, in vitro (the in vitro intrinsic clearance, Equation (1)) was calculated from the t1/2 of C118 disappearance, where Cprotein is the protein concentration during the incubation, and t1/2 was determined by the slope (k) of the log-linear regression analysis of the concentration versus time profiles; thus, t1/2 = ln2/k. […] The in vivo hepatic clearance (CLH, Equation (3)) was then calculated by using CLint and hepatic blood flow, Q ([…] mL·min^−1·kg^−1 in rats, dogs, monkey, and humans, respectively), in the well-stirred liver model disregarding all binding. The hepatic extraction ratio was calculated as CLH divided by Q. CLint, in vitro = (0.693/t1/2) × (1/Cprotein)(1) CLint = CLint, in vitro × (mg protein/g liver weight) × (gliver weight/kg body weight)(2) CLH = (Q × CLint)/(Q + CLint)(3)

[3] = PK in rats after i.v. C118P; format: in vivo, SD rats; conditions: both sexes, rat, plasma; for concentration at 30 s: intravenous, read-out: C2min (C30s for Rat); for concentration at 30 s / AUC(0-inf) / half-life: rats, n = 6
Procedure: The SD rats were supplied by the medical animal experiment center of Chinese People’s Liberation Army Nanjing military region. Twenty-four rats (210–300 g) with half males and half females were divided randomly into four groups. C118P was dissolved in saline to achieve different concentrations for intravenous administration. After fasting overnight, the rats were administered with a single intravenous dose of 5, 10, 20, or 50 mg/kg C118P. Blood samples (approximately 200 μL) were collected in EDTA-coated tubes pre-dose (0), and 30s, 2, 5, 10, 20, 40 min, 1, 2, 4, 8, 12 and 24 h post dose. Plasma was prepared by centrifugation at 8000 rpm for 5 min, and the plasma samples were then prepared and determined by the method described above.
(§1) The area under the plasma-concentration-versus-time curve from 0 to infinite (AUC0-inf), the elimination half-life (t1/2), the systemic plasma clearance (CL) and the volume of distribution (V) were calculated by non-compartmental analysis with WinNonlin software v6.3 (Pharsight Corporation, St. Louis, MO 63144, USA) from the plasma concentration data of C118P and C118, respectively. The instantaneous concentrations after intravenous to rats (C30s) or dogs (C2min) were obtained directly from the observed data.

[4] = PK in dogs after i.v. C118P; format: in vivo, beagle dogs; conditions: both sexes, beagle, dog, plasma; for concentration at 2 min: intravenous, read-out: C2min; for concentration at 2 min / AUC(0-inf) / half-life: dogs, n = 6
Procedure: The beagle dogs were purchased from Nanjing Ya Dong experimental animal research center. Twelve beagle dogs with half males and half females were divided randomly into two groups. C118P was dissolved in saline to different concentrations for intravenous administration. After fasting overnight with free access to water, the dogs were administered a single intravenous dose of 1 or 3 mg/kg C118P. After a one-week wash-out period, the group of 1 mg/kg were administered another single intravenous dose of 6 mg/kg C118P. Blood samples (approximately 1 mL) were collected in EDTA-coated tubes at times of 0, 2, 5, 10, 20, 40 min, 1, 2, 4, 8, 12 and 24 h. Plasma was prepared by centrifugation at 8000 rpm for 5 min, and the plasma samples were then prepared and determined by the method described above.
as §1

[5] = Stability in plasma with EDTA as anticoagulant; format: in vitro ADME
[6] = Sprague-Dawley, iv, i.v. C118P 10 mg/kg

COc1cc(OC)cc(-c2nc[nH]c2-c2ccc(OC)c(O)c2)c1 [C118]
blood plasma ratio at 30 min [1]: 1.05 | CLint, in vitro ([2]; dog liver microsomes): 9.9 μL·min^−1·mg^−1 Protein | half-life ([2]; dog liver microsomes, 1.0 mg protein/mL, C118 disappearance): 70.1 min | CLint ([2]; dog, scaled from CLint, in vitro): 18.9 mL/min/kg | Extrapolated CLH ([2]; dog, well-stirred liver model): 12.8 mL/min/kg | concentration at 30 s ([3]; SD, i.v. C118P 5 mg/kg): 1580 ± 318 ng/mL | concentration at 30 s ([3]; SD, i.v. C118P 20 mg/kg): 7720 ± 2010 ng/mL | concentration at 30 s ([3]; SD, i.v. C118P 50 mg/kg): 20600 ng/mL | AUC(0-inf) ([3]; SD, iv, i.v. C118P 5 mg/kg): 741 ± 63.2 ng·h/mL | half-life ([3]; SD, iv, i.v. C118P 5 mg/kg): 31.2 ± 6 min | AUC(0-inf) ([3]; SD, iv, i.v. C118P 20 mg/kg): 3750 ± 592 ng·h/mL | half-life ([3]; SD, iv, i.v. C118P 20 mg/kg): 36 ± 3.6 min | AUC(0-inf) ([3]; SD, iv, i.v. C118P 50 mg/kg): 9720 ± 1300 ng·h/mL | half-life ([3]; SD, iv, i.v. C118P 50 mg/kg): 149 ± 75.6 min | clearance ([3]; Sprague-Dawley, iv, in vivo, compared with extrapolated CLH, read-out: Observed CL): 62.9 mL/min/kg | concentration at 30 s ([3]; Sprague-Dawley, i.v. C118P 10 mg/kg): 3720 ± 974 ng/mL | AUC(0-inf) [3, 6]: 1600 ± 193 ng·h/mL | half-life [3, 6]: 33 ± 7.8 min | concentration at 2 min ([4]; i.v. C118P 1 mg/kg): 252 ± 70.5 ng/mL | concentration at 2 min ([4]; i.v. C118P 3 mg/kg): 861 ± 259 ng/mL | concentration at 2 min ([4]; i.v. C118P 6 mg/kg): 1700 ± 509 ng/mL | AUC(0-inf) ([4]; iv, i.v. C118P 1 mg/kg): 214 ± 79 ng·h/mL | half-life ([4]; iv, i.v. C118P 1 mg/kg): 29.4 ± 10.8 min | AUC(0-inf) ([4]; iv, i.v. C118P 3 mg/kg): 910 ± 295 ng·h/mL | half-life ([4]; iv, i.v. C118P 3 mg/kg): 63 ± 16.2 min | AUC(0-inf) ([4]; iv, i.v. C118P 6 mg/kg): 1830 ± 320 ng·h/mL | half-life ([4]; iv, i.v. C118P 6 mg/kg): 50.4 ± 15 min | clearance ([4]; iv, in vivo, compared with extrapolated CLH, read-out: Observed CL): 54 mL/min/kg | stability in plasma [5]: stable
